1 compound from patent US7915264B2, “Fused pyridine derivatives for use as vanilloid receptor antagonists for treating pain” (Novartis AG, priority 2001, dated 2011) can be followed below.

Assay [1] concerns rat model of neuropathic pain. Nature of the assay: Anti-hyperalgesic effects in a model of neuropathic pain in the rat (partial sciatic nerve ligation, paw pressure). The format is in vivo. The note with it: single dose 0.3-30 mg/kg p.o. after establishment of hyperalgesia. The procedure: Test: Anti-Hyperalgesic Effects in a Model of Neuropathic Pain in the Rat
The agents of invention are potent and efficacious anti-hyperalgesic agents following oral administration in the following rat model of neuropathic pain. Peripheral neuropathy is induced by partial ligation of the left sciatic nerve. Mechanical hyperalgesia is assessed from paw withdrawal thresholds measured on the ipsilateral (ligated) and contralateral (non-ligated) hindpaws using standard paw pressure methods. Drug effects are studied 11-15 days post ligation. The mean paw withdrawal threshold±s.e.m. for the left (ligated) paw is compared to that of the right (non-ligated) paw.
The agents of invention are administered, e.g. orally in 20% cremophor/water in a volume of 1 ml. The post-drug percentage hyperalgesia values are obtained by comparison to the pre-drug value for the right (non-ligated) paw; this enables a true measure of the reduction in hyperalgesia to be obtained without the added complication of any drug effects on the right paw. […] The agents of invention produce a reversal of mechanical hyperalgesia at 0.1-100 mg/kg and show a rapid onset of activity with a long duration of action.

Assay [2] addresses T1, human vanilloid receptor 1 (hVR1) ion channels (Homo sapiens, UniProt Q8NER1).
T1 construct: expressed in transfected cells; host or cells: CHO cells
Kind of assay: Fluorescence assay (calcium-sensitive dye) in CHO cells expressing human vanilloid receptor 1 ion channels, stimulated by capsaicin or low pH. It counts as cell-based. The note with it: in vitro, VR1 ion channel block. How it is done:
Fluorescence assay: Cultures of Chinese Hamster Ovary (CHO) cells expressing human vanilloid receptor 1 ion channels are prepared according to standard protocols [McIntyre et al., British Journal of Pharmacology 132: 1084-1094 (2001)]. The activity of test compounds are investigated using a fluorescence assay utilising calcium sensitive dyes to measure changes in [Ca^2+]i. The cells are plated at a density of 25,000 per well on 96 well Costar black, clear bottomed plates cultured at 37° C. in 5% CO2 in MEM medium overnight. On the day of the assay, cells are incubated in either 2 μM fura-2/AM or 2 μM fura-6F (Molecular Probes) made up in assay buffer [Hank's Balanced Salt Solution (HBSS, Invitrogen) containing 10 mM N-2-(hydroxyethylpiperazine-N′-[2-ethanesulfonic acid) (HEPES), pH 7.4] containing 0.01% pluronic F-127 for 30 min at room temperature. […] The fluorescence is measured over 1 min at 4 s intervals using excitation wavelengths of 340 and 380 nm and emission of 520 nm. […] The ratio of fluorescence intensities following excitation at 340 and 380 nm is calculated for each time point. The agonist-evoked response is calculated as the mean of the ratios in the four time-points following stimulation minus the basal ratio.

Another assay has as its target rat VR1 (Rattus norvegicus, UniProt O35433). Kind of assay: Fluorescence assay, rat VR1. It counts as cell-based. To be noted: in vitro, VR1 ion channel block.

Chain of rat VR1 (O35433 whole entry): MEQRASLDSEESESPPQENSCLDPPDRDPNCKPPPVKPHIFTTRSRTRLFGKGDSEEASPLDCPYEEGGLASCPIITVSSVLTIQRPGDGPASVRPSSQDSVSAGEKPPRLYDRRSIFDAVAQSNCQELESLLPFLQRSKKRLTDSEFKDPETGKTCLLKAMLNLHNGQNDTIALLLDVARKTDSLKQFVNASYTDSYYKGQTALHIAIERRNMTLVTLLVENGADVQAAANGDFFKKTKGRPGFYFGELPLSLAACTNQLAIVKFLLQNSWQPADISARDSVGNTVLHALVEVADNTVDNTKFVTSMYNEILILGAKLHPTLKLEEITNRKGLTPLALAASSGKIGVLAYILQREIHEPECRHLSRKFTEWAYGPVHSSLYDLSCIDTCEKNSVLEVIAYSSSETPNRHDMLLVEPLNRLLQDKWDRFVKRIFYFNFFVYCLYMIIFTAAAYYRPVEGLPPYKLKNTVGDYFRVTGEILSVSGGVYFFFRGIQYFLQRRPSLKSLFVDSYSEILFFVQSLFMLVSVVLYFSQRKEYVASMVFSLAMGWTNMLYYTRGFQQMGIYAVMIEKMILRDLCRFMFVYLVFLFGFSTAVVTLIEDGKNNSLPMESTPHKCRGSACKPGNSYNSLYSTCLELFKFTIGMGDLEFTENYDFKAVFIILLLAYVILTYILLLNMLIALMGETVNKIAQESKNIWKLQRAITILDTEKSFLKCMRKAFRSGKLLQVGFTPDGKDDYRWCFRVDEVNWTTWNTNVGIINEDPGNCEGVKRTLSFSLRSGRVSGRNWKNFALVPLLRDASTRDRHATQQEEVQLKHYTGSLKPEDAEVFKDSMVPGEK
T1 sequence (Q8NER1 whole entry): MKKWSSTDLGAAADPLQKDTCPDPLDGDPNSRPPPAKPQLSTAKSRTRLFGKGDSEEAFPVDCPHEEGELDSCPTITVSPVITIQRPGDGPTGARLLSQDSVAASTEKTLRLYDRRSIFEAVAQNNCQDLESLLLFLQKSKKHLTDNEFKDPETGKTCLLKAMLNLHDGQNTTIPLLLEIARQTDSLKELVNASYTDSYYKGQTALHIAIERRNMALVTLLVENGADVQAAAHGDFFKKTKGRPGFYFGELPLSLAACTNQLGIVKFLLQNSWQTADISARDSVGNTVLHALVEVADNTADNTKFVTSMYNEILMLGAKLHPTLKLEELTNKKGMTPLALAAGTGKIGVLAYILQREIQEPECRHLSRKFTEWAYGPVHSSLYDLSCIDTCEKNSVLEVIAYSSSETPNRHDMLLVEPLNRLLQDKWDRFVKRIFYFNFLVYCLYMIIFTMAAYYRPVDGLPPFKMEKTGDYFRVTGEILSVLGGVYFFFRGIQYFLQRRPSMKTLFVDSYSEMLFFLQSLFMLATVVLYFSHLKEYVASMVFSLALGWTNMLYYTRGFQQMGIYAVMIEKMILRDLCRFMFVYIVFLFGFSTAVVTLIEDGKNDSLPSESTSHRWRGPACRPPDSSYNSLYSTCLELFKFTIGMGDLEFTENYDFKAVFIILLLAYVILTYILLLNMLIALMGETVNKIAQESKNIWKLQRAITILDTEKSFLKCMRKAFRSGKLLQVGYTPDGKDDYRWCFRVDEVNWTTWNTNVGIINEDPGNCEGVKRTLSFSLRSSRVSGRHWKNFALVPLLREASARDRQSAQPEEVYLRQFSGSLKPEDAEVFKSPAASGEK

A word on the IC50: it is the concentration needed to halve the response being measured. On to `CC(C)(C)c1nc2[nH]c(=S)[nH]c(=O)c2cc1-c1ccc(Cl)cc1` [Example 2, 7-.tert.-butyl-6-(4-chlorophenyl)-2-thioxo-2,3-dihydro-1.H.-pyrido[2,3-.d.]pyrimidin-4-one], for which, in assay [1], the “duration of effect on paw withdrawal thresholds” value was “at least 6 h” and the “effect on paw withdrawal thresholds” value is listed as “dose-dependently reduces paw withdrawal thresholds”. Moreover, the IC50 in assay [2] stood at 65.1 nM. The compound also yielded an IC50 against rat VR1 of 19.2 nM.
